The record followed here is patent publication US12577247B2 (BUGWORKS RESEARCH, INC., priority 2021, dated 2026).

For orientation: IC50 means the concentration that inhibits the measured activity by half.

In experiment [1] the target is T1, A2B receptor (Homo sapiens, UniProt P29275).
T1 sequence (P29275 1-332): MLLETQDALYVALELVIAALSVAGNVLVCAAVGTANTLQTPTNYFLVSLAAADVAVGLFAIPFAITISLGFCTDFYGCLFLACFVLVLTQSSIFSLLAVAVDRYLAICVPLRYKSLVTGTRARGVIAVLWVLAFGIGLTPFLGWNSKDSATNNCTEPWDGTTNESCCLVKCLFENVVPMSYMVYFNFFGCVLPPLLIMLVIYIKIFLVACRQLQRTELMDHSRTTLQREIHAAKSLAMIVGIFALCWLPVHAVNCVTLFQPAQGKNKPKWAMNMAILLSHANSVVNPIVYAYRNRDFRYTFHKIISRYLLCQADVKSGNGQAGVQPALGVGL
As to the kind of experiment: A2bR antagonism IC50, cAMP TR-FRET (Lance Ultra) in HEK-293 cells, NECA as agonist. Type of experiment: cell-based. Set-up: host or cells: HEK-293. Particulars: HEK-293 cells expressing A2B receptor; agonist NECA 30 nM (EC90); inhibition of cAMP. On the technique in general: In TR-FRET formats the signal depends on donor and acceptor labels being close together.
Source text: (§1) Adenosine A2A receptors and Adenosine A2B receptors induce the production of cAMP when activated/stimulated by an agonist like adenosine or 5′-(N-Ethylcarboxamido) adenosine (NECA). A Time-Resolved Fluorescence Energy Transfer (TR-FRET) assay was used to show the inhibition of this cAMP production in HEK cells upon treatment with compounds of the Formula I of the present disclosure.
(§2) HEK-293 cells expressing A2A receptor (#ES-011-C) or A2B receptor (#ES 013-C) were obtained from PerkinElmer. Cells were maintained in DMEM medium supplemented with 10% FBS and 200 μg/mL of G418 at 37° C. and 5% CO2. The cells were cultured in antibiotic free medium for a period of 16-20 hours prior to the assay. All subsequent steps of the assay are performed at room temperature (22-24° C.). The cells were harvested at about 80% confluency by gentle flushing with PBS, recovered by centrifugation and resuspended in stimulation buffer at the concentration of 5.0×10^6 cells/mL.
(§3) The assays were conducted in a stimulation buffer containing 1×DMEM, 5 mM HEPES, 0.1% BSA stabilizer and 20-30 μM Rolipram. Serial dilutions of compounds were made in stimulation buffer to achieve a final concentration of high micromolar (10 μM to 0.08 nM) in the reaction volume of 10 μL. The total reaction volume was 10 μL (5 μL of cells, 2.5 μL of antagonist and 2.5 μL of agonist). The stimulation was ended, and the reaction completed by adding 5 μL of 4× Eu-cAMP tracer working solution and 5 μL of 4× ULight-anti-cAMP working solution. The TR-FRET signal was measured after 1-hour incubation using a Tecan M1000 reader.

The target of experiment [2] is T2, A2A receptor (Homo sapiens, UniProt P29274).
T2 construct: host or cells: HEK-293
The experiment in a line: A2aR antagonism IC50, cAMP TR-FRET (Lance Ultra) in HEK-293 cells, NECA as agonist.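 Note: compounds tested from 10 µM down to 0.08 nM in buffer with Rolipram at room temperature, TR-FRET cAMP signal read 1 h after adding Eu-cAMP tracer and ULight anti-cAMP.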 Type of experiment: cell-based. The following applies: A2AR IC50 (nM) (@5 nM NECA), HEK-293 cells expressing A2A receptor; agonist NECA 5 nM (EC90); inhibition of cAMP.
Source text: as §1, §2, §3

Where only a bound is given, the exact number is not on record here.

T2 sequence (P29274 whole entry): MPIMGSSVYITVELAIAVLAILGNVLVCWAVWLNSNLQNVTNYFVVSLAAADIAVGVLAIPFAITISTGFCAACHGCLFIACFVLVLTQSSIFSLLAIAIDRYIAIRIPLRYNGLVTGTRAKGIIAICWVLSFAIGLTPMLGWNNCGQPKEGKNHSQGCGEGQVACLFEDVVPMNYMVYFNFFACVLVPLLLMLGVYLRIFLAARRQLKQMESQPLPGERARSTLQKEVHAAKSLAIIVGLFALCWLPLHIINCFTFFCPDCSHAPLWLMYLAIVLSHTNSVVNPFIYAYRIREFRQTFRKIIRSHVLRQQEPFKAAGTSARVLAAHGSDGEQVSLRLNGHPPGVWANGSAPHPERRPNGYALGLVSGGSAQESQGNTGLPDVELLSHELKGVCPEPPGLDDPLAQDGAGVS

As to `CCc1c(C)nn2c(N)c(C#N)c(NCCc3ccc(F)cn3)nc12` [Example 21, 7-Amino-3-ethyl-5-((2-(5-fluoropyridin-2-yl)ethyl)amino)-2-methylpyrazolo[1,5-a]pyrimidine-6-carbonitrile], the IC50 stood at 13 nM in experiment [1] and 3.9 nM in experiment [2].

As for `CCc1nn2c(N)c(C#N)c(NCCc3cccc(C(C)(C)O)n3)nc2c1C` [Example 43, 7-amino-2-ethyl-5-((2-(6-(2-hydroxypropan-2-yl)pyridin-2-yl)ethyl)amino)-3-methylpyrazolo[1,5-a]pyrimidine-6-carbonitrile], the IC50 was determined as 123 nM in experiment [1] and 2.3 nM in experiment [2].

Regarding `Cc1ccc(CCNc2nc3c(C)c(C)nn3c(N)c2C#N)nc1` [Example 10, 7-Amino-2,3-dimethyl-5-((2-(5-methylpyridin-2-yl)ethyl)amino) pyrazolo[1,5-a] pyrimidine-6-carbonitrile], the results for the IC50 in experiment [1] and in experiment [2] were 41 nM and 2.3 nM, respectively.

As for `COc1cccc(CCNc2nc3c(C)c(C)nn3c(N)c2C#N)n1` [Example 12, 7-amino-5-((2-(6-methoxypyridin-2-yl)ethyl)amino)-2,3-dimethylpyrazolo[1,5-a]pyrimidine-6-carbonitrile], the 50% inhibitory concentration (IC50) in experiment [1] amounted to 3.7 nM; in experiment [2] it was 0.9 nM.

`CCc1c(C(F)F)nn2c(N)c(C#N)c(NCCc3cccc(CO)n3)nc12` [Example 56, 7-amino-2-(difluoromethyl)-3-ethyl-5-((2-(6-(hydroxymethyl)pyridine-2-yl)ethyl)amino) pyrazolo[1,5-a] pyrimidine-6-carbonitrile]: the values for the IC50 in experiment [1] and in experiment [2] were 11 nM and 3.3 nM, respectively.

`Cc1nn2c(N)c(C#N)c(NCCc3ccc(F)cn3)nc2c1C` [Example 11, 7-amino-5-((2-(5-fluoropyridin-2-yl)ethyl)amino)-2,3-dimethylpyrazolo[1,5-a]pyrimidine-6-carbonitrile]: the values for the IC50 in experiment [1] and in experiment [2] were 43 nM and 6.8 nM, respectively.

In the case of `CCc1c(C)nn2c(N)c(C#N)c(NCCc3nc(C4(CO)CC4)cs3)nc12` [Example 66], the IC50 in experiment [1] was 21 nM; in experiment [2] it was 5 nM.

On to `Cc1ccc(F)c(CCNc2nc3c(C)c(C)nn3c(N)c2C#N)n1` [Example 41, 7-amino-5-((2-(3-fluoro-6-methylpyridin-2-yl)ethyl)amino)-2,3-dimethylpyrazolo[1,5-a]pyrimidine-6-carbonitrile], for which the IC50 in experiment [1] is 73 nM; in experiment [2] it was 0.88 nM.

With `CCn1ccc(CCNc2nc3c(C)c(C)nn3c(N)c2C#N)n1` [Example 29, 7-amino-5-{[2-(1-ethyl-1H-pyrazol-3-yl)ethyl]amino}-2,3-dimethylpyrazolo[1,5-a]pyrimidine-6-carbonitrile], the IC50 in experiment [1] was 18 nM; in experiment [2] it was 1 nM.

`Cc1nn2c(N)c(C#N)c(NCc3ccn(C(C)(C)CO)n3)nc2c1C` [Example 57, 7-amino-5-(((1-(1-hydroxy-2-methylpropan-2-yl)-1H-pyrazol-3-yl)methyl)amino)-2,3-dimethylpyrazolo[1,5-a]pyrimidine-6-carbonitrile]: the IC50 in experiment [1] worked out at 100 nM; in experiment [2], 13 nM.

For `CCc1c(C)nn2c(N)c(C#N)c(NCCc3cccc(C(C)(C)CO)n3)nc12` [Example 52, 7-amino-3-ethyl-5-((2-(6-(1-hydroxy-2-methylpropan-2-yl)pyridin-2-yl)ethyl)amino)-2-methylpyrazolo[1,5-a] pyrimidine-6-carbonitrile], the IC50 in experiment [1] was 29.3 nM; in experiment [2], 0.54 nM.

As to `Cc1cccc([C@H](C)Nc2nc3c(C)c(C)nn3c(N)c2C#N)n1` [Example 2, 7-amino-2,3-dimethyl-5-{[(1S)-1-(6-methylpyridin-2-yl)ethyl]amino}pyrazolo [1,5-a]pyrimidine-6-carbonitrile], the IC50 in experiment [1] is 547 nM; in experiment [2], 2 nM.

As for `CCc1cccc(CNc2nc3c(C)c(C)nn3c(N)c2C#N)n1` [Example 7, 7-amino-5-{[(6-ethylpyridin-2-yl)methyl]amino}-2,3-dimethylpyrazolo[1,5-a] pyrimidine-6-carbonitrile], the IC50 was above 3000 nM in experiment [1] and 0.59 nM in experiment [2].

For `Cc1cccc(CCNc2nc3c(C(C)C)c(C)nn3c(N)c2C#N)n1` [Example 28, 7-amino-3-(isopropyl)-2-methyl-5-((2-(6-methylpyridin-2-yl)ethyl)amino) pyrazolo[1,5-a]pyrimidine-6-carbonitrile], the IC50 in experiment [1] came out at 17 nM; in experiment [2], 31 nM.

Turning to `CCc1nn2c(N)c(C#N)c(NCCc3cccc(C)n3)nc2c1C` [Example 42, 7-amino-2-ethyl-3-methyl-5-((2-(6-methylpyridin-2-yl)ethyl)amino) pyrazolo[1,5-a]pyrimidine-6-carbonitrile], the results for the IC50 in experiment [1] and in experiment [2] were 76 nM and 0.88 nM, respectively.

`CCc1c(C)nn2c(N)c(C#N)c(N[C@H](C)c3ccccn3)nc12` [Example 3, (R)-7-Amino-3-ethyl-2-methyl-5-((1-(pyridin-2-yl)ethyl)amino) pyrazolo[1,5-a] pyrimidine-6-carbonitrile]: the results for the concentration for half-maximal inhibition (IC50) in experiment [1] and in experiment [2] were above 3000 nM and 1010 nM, respectively.

Consider `CCc1c(C)nn2c(N)c(C#N)c(NCCc3cccc(C(C)(C)O)n3)nc12` [Example 25, 7-amino-3-ethyl-5-({2-[6-(2-hydroxypropan-2-yl)pyridin-2-yl]ethyl}amino)-2-methylpyrazolo[1,5-a]pyrimidine-6-carbonitrile], for which the IC50 in experiment [1] was 14 nM; in experiment [2] it was 0.2 nM.

With `CCc1c(C)nn2c(N)c(C#N)c(N[C@@H](C)c3cccc(C)n3)nc12` [Example 5, (S)-7-Amino-3-ethyl-2-methyl-5-((1-(6-methylpyridin-2-yl)ethyl)amino) pyrazolo [1,5-a] pyrimidine-6-carbonitrile], the IC50 in experiment [1] is 0.87 nM; in experiment [2], 0.15 nM.

As to `Cc1cccc(C(C)Nc2nc3c(C)c(C)nn3c(N)c2C#N)n1` (centres unmarked) [Example 1, 7-amino-2,3-dimethyl-5-{[1-(6-methylpyridin-2-yl)ethyl]amino}pyrazolo[1,5-a]pyrimidine-6-carbonitrile], the IC50 in experiment [1] came to 1330 nM; in experiment [2], 10 nM.

`CCc1c(C)nn2c(N)c(C#N)c(N[C@@H](C)c3ccccn3)nc12` [Example 4, (S)-7-Amino-3-ethyl-2-methyl-5-((1-(pyridin-2-yl)ethyl)amino) pyrazolo[1,5-a] pyrimidine-6-carbonitrile]: the results for the IC50 in experiment [1] and in experiment [2] were 1370 nM and 25 nM, respectively.

In the case of `Cc1nn2c(N)c(C#N)c(NCCc3cccc(C(C)(C)O)n3)nc2c1C` [Example 16, 7-amino-5-({2-[6-(2-hydroxypropan-2-yl)pyridin-2-yl]ethyl}amino)-2,3-dimethylpyrazolo[1,5-a]pyrimidine-6-carbonitrile], the IC50 came to 53 nM in experiment [1] and 2 nM in experiment [2].

Consider `Cc1nn2c(N)c(C#N)c(NCCc3ccn(C(C)(C)CO)n3)nc2c1C` [Example 31, 7-amino-5-({2-[1-(1-hydroxy-2-methylpropan-2-yl)-1H-pyrazol-3-yl]ethyl}amino)-2,3-dimethylpyrazolo[1,5-a]pyrimidine-6-carbonitrile], for which the IC50 in experiment [1] was determined as 51 nM; in experiment [2], 0.73 nM.

Consider `CCc1c(C)nn2c(N)c(C#N)c(NCCc3ccc(OC)cn3)nc12` [Example 19, 7-Amino-3-ethyl-5-((2-(5-methoxypyridin-2-yl)ethyl)amino)-2-methylpyrazolo [1,5-a]pyrimidine-6-carbonitrile], for which the IC50 in experiment [1] was 36 nM; in experiment [2], 2.1 nM.

With `CCc1c(C)nn2c(N)c(C#N)c(NC(C)Cc3ccccn3)nc12` (single isomer, unassigned) [Example 23, 7-Amino-3-ethyl-2-methyl-5-((1-(pyridin-2-yl)propan-2-yl)amino) pyrazolo[1,5-a]pyrimidine-6-carbonitrile], the IC50 in experiment [1] is 130 nM; in experiment [2], 11 nM.

`Cc1nn2c(N)c(C#N)c(NCCc3cccc(C(C)(C)CO)n3)nc2c1C` [Example 53, 7-amino-5-((2-(6-(1-hydroxy-2-methylpropan-2-yl)pyridine-2-yl)ethyl)amino)-2,3-dimethylpyrazolo[1,5-a]pyrimidine-6-carbonitrile]: the figures for the IC50 in experiment [1] and in experiment [2] were 27 nM and 0.3 nM, respectively.

For `Cc1cccc(CN(C)c2nc3c(C)c(C)nn3c(N)c2C#N)n1` [Example 8, 7-amino-2,3-dimethyl-5-{methyl[(6-methylpyridin-2-yl)methyl]amino}pyrazolo [1,5-a] pyrimidine-6-carbonitrile], the IC50 is 1680 nM in experiment [1] and 46 nM in experiment [2].

Take `Cc1cccc(CNc2nc3c(C)c(C)nn3c(N)c2C#N)n1` [Example 6, 7-amino-2,3-dimethyl-5-{[(6-methylpyridin-2-yl)methyl]amino}pyrazolo[1,5-a] pyrimidine-6-carbonitrile]: the IC50 in experiment [1] was above 3000 nM; in experiment [2], 6.6 nM.

In the case of `CCc1c(C)nn2c(N)c(C#N)c(NCCc3nn(C(C)(C)CO)cc3F)nc12` [Example 62], the IC50 in experiment [1] came to 42 nM; in experiment [2], 5 nM.
